How the values were obtained:
Format in all cases: cell-based
[1] = test system: human colon cancer cell line SW 480; assay: Growth inhibition assay (MTT), SW 480; settings: Table VI, 6 days incubation
Experimental: (§1) As another example of evaluation of cytotoxicity, cancer cell lines were also used for a growth inhibition assay. The human colon cancer cell lines SW 480 and HT 29 and the murine melanoma cell line B16F10 were used. […] After confluent growth, the cells were trypsinated and resuspended in RPMI plus 10% FCS to a cell concentration of 50000 cells per ml in case of colon cancer cell lines and 20000 in case of B16F10. 100 μl of this cell suspension were transferred in each well of a 96 well microtiter plate and incubated for 1 day at 37° C. in a CO2-incubator. Subsequently, further 100 μl RPMI medium and 1 μl of a DMSO solution, containing the artemisinin derivatives were added. The growth inhibition was estimated after 6 days incubation at 36° C. using the MTT assay.
(§2) 25 μl MTT solution (3-(4,5-dimethylthiazol-2-yl)-2,5-diphenyltetrazolium-bromid) of a starting concentration of 5 mg/ml H2O were added and incubated at 37° C. for 5 h. Subsequently, 100 μl iso-propanol per well were added. After 15 min incubation 100 μl H2O were added. After 30 min shaking, the extinction was measured at 595 nm using a ELISA-Multiplate Reader.

[2] = test system: human colon cancer cell line HT 29; assay: Growth inhibition assay (MTT), HT 29; settings: Table VI, 6 days incubation
Experimental: as §1, §2

[3] = test system: murine melanoma cell line B16F10; assay: Growth inhibition assay (MTT), B16F10; settings: Table VI, 6 days incubation
Experimental: as §1, §2

[4] = test system: Rat 6 subclone of the immortalized F2408 embryo cell line (R6); assay: Screening for cytotoxicity, cell count by Coulter Counter, R6 cells; settings: for LD50 (Day 3) R6: day 3 after addition; for LD50 (Day 6) R6: day 6 after addition
Experimental: (§3) Compounds of the invention were screened against Rat 6 subclone of the immortalized F2408 embryo cell line, and Rat 6 (R6T24) cells transfected and transformed by a c-H-ras oncogene. The screening involved placing the R6 and R6T24 cell lines plated at 10^3 cells per well into a 12-well microtiter culture plate for 24 hours. The compounds were added at final concentrations from 0.1-100 μM, and cells were trypsized and counted by Coulter Counter at day 3 and day 6 after the addition. Untreated cells were assigned a survival value of 100%.

[5] = test system: Rat 6 (R6T24) cells transfected and transformed by a c-H-ras oncogene; assay: Screening for cytotoxicity, cell count by Coulter Counter, R6T24 cells; settings: R6T24 cell line; for LD50 (Day 3) R6T24: day 3 after addition; for LD50 (Day 6) R6T24: day 6 after addition
Experimental: as §3

Molecule | LD50 SW 480 [1] [nM] | LD50 HT 29 [2] [nM] | LD50 B16F18 [3] [nM] | LD50 (Day 3) R6 ([4]; Table V) [µM] | LD50 (Day 6) R6 ([4]; Table V) [µM] | LD50 (Day 3) R6 ([4]; Table VA) [µM] | LD50 (Day 6) R6 ([4]; Table VA) [µM] | LD50 (Day 3) R6T24 ([5]; Table V) [µM] | LD50 (Day 6) R6T24 ([5]; Table V) [µM] | LD50 (Day 3) R6T24 ([5]; Table VA) [µM] | LD50 (Day 6) R6T24 ([5]; Table VA) [µM]
10α and β-[(2′-naphthylmethyl)oxy]dihydroartemisinin [Example 13β] | 300 | 600 | 400 | – | – | – | – | – | – | – | –
COc1cc(OC)c(C2OC3OC4(C)CCC5C(C)CCC(C2C)C35OO4)c(OC)c1 (mixture of isomers) [Example 27] | – | – | – | 0.57 | 1.10 | 0.57 | 1.10 | 0.67 | 0.26 | 0.67 | 0.26
CO[C@H]1O[C@@H]2O[C@@]3(C)CC[C@H]4[C@H](C)CC[C@@H]([C@H]1C)[C@@]24OO3 [Artemether, artemether, reference compound] | – | – | – | >100.00 | 1.0 | >100 | 0.6 | >100.00 | 1.8 | >100 | 0.71
CC1CCC2[C@@H](C)C(=O)OC3O[C@]4(C)CCC1C32OO4 (stereo partly shown) [Artemisinin, artemisinin, reference compound] | – | – | – | >100.00 | 4.08 | >100.00 | 4.08 | 3.09 | 1.75 | 3.49 | 1.75
C[C@H]1[C@H](OC(=O)CCC(=O)O)O[C@@H]2O[C@@]3(C)CC[C@H]4[C@H](C)CC[C@@H]1[C@@]24OO3 [Artesunate, artesunate, reference compound] | – | – | – | 2.80 | 2.06 | 2.80 | 2.08 | 1.77 | 1.04 | 1.77 | 1.04
CC[C@@]1(O)C(=O)OCc2c1cc1n(c2=O)Cc2cc3ccccc3nc2-1 [CAMPTOTHECIN, reference compound] | 9 | 4 | 30 | – | – | – | – | – | – | – | –
CC1CCC2[C@@H](C)C(=O)N(Cc3ccccc3)C3O[C@]4(C)CCC1C23O4 (stereo partly shown) [D, reference compound] | – | – | – | >50.00 | >50.00 | >50 | >50 | >50.00 | >50.00 | >50 | >50
CC1CCC2C(C)C(F)OC3OC4(C)CCC1C32OO4 (stereo not drawn) [Example 1, 10β-fluoro-10-deoxodihydroartemisinin] | – | – | – | 1.18 | 1.63 | 1.28 | 1.62 | 1.93 | 0.61 | 1.93 | 0.61
CC1CCC2C(C)C(Oc3ccnc4cc(C(F)(F)F)ccc34)OC3OC4(C)CCC1C32OO4 (stereo not drawn) [Example 12, 10β-[4′-(7′-trifluoromethyl-quinolinoxy)]dihydroartemisinin] | 150 | 2000 | 300 | – | – | – | – | – | – | – | –
CC1CC[C@H]2[C@@H](C)C(=O)NC3O[C@]4(C)CCC1C32OO4 (stereo partly shown) [Example 14, 11-azaartemisinin] | – | – | – | >50.00 | 1.22 | >50 | 1.22 | 0.18 | 0.09 | 0.18 | 0.09
CC1CCC2C(CN(Cc3ccccc3)Cc3ccccc3)C(=O)OC3OC4(C)CCC1C32OO4 (stereo not shown) [Example 17, 9-(N,N-dibenzylaminomethyl)artemisinin] | – | – | – | 1.57 | 2.58 | – | – | 1.81 | 0.54 | – | –
CCOC(=O)CCC1C(=O)OC2OC3(C)CCC4C(C)CCC1C24OO3 (stereo not shown) [Example 19, 9-[2-(ethoxycarbonyl)ethyl]artemisinin] | – | – | – | 52.00 | 59.00 | – | – | 28.12 | 24.95 | – | –
C[C@@H]1CC[C@H]2[C@@H](C)C(c3ccc4ccccc4c3)O[C@@H]3O[C@@]4(C)CC[C@@H]1[C@]32OO4 (stereo partly shown) [Example 28] | 150 | 300 | 300 | – | – | – | – | – | – | – | –

Reference: patent publication US6649647B1, “Trioxane derivatives” (priority 1998, dated 2003)
